Results reported in US20230096528A1, “Pharmaceutical Composition for Treatment or Prevention of Multiple Inflammatory disorders” (priority 2019, published 2023).

How the values were obtained:
[1] = test system: leptin-deficient (ob/ob) mice; assay: Denatonium acetate on body weight in leptin-deficient (ob/ob) mice (Example 1); type: in vivo
Protocol: This example describes an in vivo study of denatonium acetate on body weight in leptin-deficient (ob/ob) mice. Adult leptin-deficient mice (homozygote, ob/ob mice) fed with high-fat diet. There was a vehicle control group (15 mice) that were treated with distilled water by gavage BID. […] Body weights and body weight changes were determined at days 1, 3, 7, 10, 14, 21, 24 and 28. Food intake was determined on days 3, 7, 10, 14, 17, 21, […] and 28. On day 28 blood samples were taken for cytokine analysis, HbA1c, HDL, LDL, insulin, and bile acids.

[2] = test system: microbial populations in a nonalcoholic steatohepatitis (NASH) mouse model; assay: Microbiome study in NASH mouse model on AMLN diet (Example 4); type: in vivo, C57BL/6 mice
From the text: There were changes in the microbiome in a mice model using a high-fat diet after 4 weeks of treatment with and without administering DA orally. The high fat diet itself induced extensive changes in the microbial populations in all groups. Importantly though, there was a pronounced difference between the DA treatment group and the control group at week 4.
Classifications of the different organisms that changed in the control and treatment groups at 4 weeks and observed extensive changes in the primary or dominant phylum groups of bacteria, as well as on a family and genus level were made. […] The diversity at 4 weeks dropped over the study course in both control and treatment group due to dietary impact.
The genetic potential of treatment-induced changes in relation to predicted physiological and metabolic pathways were aligned with observed benefits of treatment with DA with regards to attenuating inflammation and metabolic syndrome. The majority of the pathways being impacted were directly related to a decrease in inflammation and are known to be beneficial to cardiovascular health and other conditions related to the metabolic syndrome in humans. Observations included: • Increased metabolism of unsaturated fatty acids • Increased metabolism of arachidonic acid • Increased metabolism of cofactors and vitamins • Increased lysine degradation • Increased glycolysis and gluconeogenesis • Increased phosphatidylinositol signaling • Decreased arginine and ornithine metabolism Below Changes from Phylum à Family à Genus Level
The effect of a small molecule oral TAS2R agonist (DA) was investigated on microbial populations in a nonalcoholic steatohepatitis (NASH) mouse model. Two groups of 4-week-old male C57BL/6 mice (20/group) were fed Amylin Liver NASH (AMLN) diet and received daily doses of ARD-101 (30 mg/mL in water) or vehicle (water) via intragastric gavage. DNA was isolated from fecal samples collected at week 0 and 4, and microbial ecology was evaluated using bTEFAP (bacterial tag-encoded FLX amplicon pyrosequencing). Operational taxonomic units were classified using BLAST against a curated NCBI database. Diversity within specific ecosystems and microbial community structures was analyzed with Qiime 2. Differences were determined by repeated measures ANOVA and post hoc pairwise comparisons using Tukey's test. Taxonomic classification data were evaluated with a dual hierarchal dendrogram.

diet-induced (DIO) mice [3] = assay: Body weight study in diet-induced (DIO) mice (Example 9); type: in vivo, C57BL/6NTac mice
Protocol: This example provides results of a study of DA plus another compound (CQL) on body weight in diet-induced (DIO) mice. Adult C57BL/6NTac mice were fed with a high fat diet (60%). […] The study period was for 56 days+2-3 days testing period afterward. Body weight change measure 3× per week, food and water consumption on days 0, 12, 28, 42 and 56. Metabolic biomarkers were measured on days 28 and 56. Cytokine analysis on Days 28 and 56. Serum levels of GLP-1, GLP-2, and CCK at 1 h after dosing on Days 1 and 56, and at 2 h after dosing on Day 7 (dosing (>6 h fasting prior to dosing until after blood collection); and serum level of PPY on Day 56.

diet-induced (DIO) mice [4] = assay: as above; type: in vivo, C57BL/6NTac mice; conditions: DA 92.4 mg/kg gavage BID, vs vehicle
healthy mouse = assay: Cytokine profile and routes of administration in healthy mouse (Example 6); conditions: healthy mice
[5] = 23.1 mg/kg BID gavage, vs vehicle
[6] = 23.1 mg/kg BID gavage, vs vehicle, no statistically significant difference
[7] = AMLN diet mice, daily gavage, week 4, DA vs vehicle
[8] = treatment at 4 weeks versus baseline and control
[9] = DA 92.4 mg/kg gavage BID, vs vehicle
[10] = DA 92.4 mg/kg gavage BID, vs vehicle, no significant difference
[11] = gavage BID (DA 92.4 mg/kg, CQL 50 mg/kg)

CC(=O)[O-].CC[N+](CC)(CC(=O)Nc1c(C)cccc1C)Cc1ccccc1 [DA, denatonium acetate]
no statistically significant difference: Blood HbA1c levels at day 28 [1, 5] | Blood LDL cholesterol levels at day 28 [1, 5] | Blood bile acid levels at day 28 [1, 5] | Blood insulin levels at day 28 [1, 5] | Body weight change at day 28 [1, 5] | Cumulative food consumption over 28 days [1, 5] | Fasting blood glucose level at day 28 [1, 5]
did not show a significant effect: Serum glucose levels (diet-induced (DIO) mice [3]; DA 92.4 mg/kg gavage BID)
significant enrichment: Microbiome pathways for biosynthesis of unsaturated fatty acids ([2]; 4-week DA treatment) | Microbiome pathways for glycolysis and gluconeogenesis ([2]; 4-week DA treatment) | Microbiome pathways for lysine degradation ([2]; 4-week DA treatment) | Microbiome pathways for metabolism of arachidonic acid ([2]; 4-week DA treatment) | Microbiome pathways for metabolism of cofactors and vitamins ([2]; 4-week DA treatment) | Microbiome phosphatidylinositol signaling ([2]; 4-week DA treatment)
significantly less diversity: Diversity within ecosystems and microbial communities ([2]; DA versus vehicle group at week 4, p<0.05)
significant increases: Proteobacteria (phylum) in fecal microbiome ([2]; AMLN diet mice, daily gavage (30 mg/mL in water), week 4, DA vs vehicle) | Cyanobacteria (phylum) in fecal microbiome [2, 7] | Verrucomicrobia (phylum) in fecal microbiome [2, 7]
almost significant decrease: Blood total cholesterol level (LDL plus HDL) at day 28 [1, 5]
mitigated the diet-induced decrease: SCFAs in feces ([2]; AMLN diet mice, DA treatment)
Significantly Decreased: Barnesiella (genus) in microbiome [2, 8] | Candidatus soleaferrea (genus) in microbiome [2, 8] | Clostridium (genus) in microbiome [2, 8] | Dehalobacterium (genus) in microbiome [2, 8] | Dorea (genus) in microbiome [2, 8] | Flavonifractor (genus) in microbiome [2, 8] | Lachnoclostridium (genus) in microbiome [2, 8] | Oscillibacter (genus) in microbiome [2, 8] | Oscillospira (genus) in microbiome [2, 8]
significantly decreased: Microbiome signaling for arginine and ornithine metabolism ([2]; 4-week DA treatment)
noticeable decrease: Serum LDL levels at day 28 (diet-induced (DIO) mice [3]; [10]) | Serum LDL levels at day 56 (diet-induced (DIO) mice [3]; [10])
statistically significant decrease: Blood HDL level at day 28 [1, 5]
no difference: Average daily individual food intake ([1]; 28 days, DA vs vehicle)
toxic side effects: Side effects by route of administration (healthy mouse; seen only with iv administration (1 and 3 mg/kg QD))
significantly reduced: Body weight gain at day 57 (diet-induced (DIO) mice [3]; DA 92.4 mg/kg gavage BID, compared to vehicle and CQL) | Serum insulin level at Day 28 (diet-induced (DIO) mice [3]; [9]) | Serum HbA1c level at Day 28 (diet-induced (DIO) mice [3]; [11]) | Daily food intake at Day 14 (diet-induced (DIO) mice [4])
no biomarker (cytokine) effects: Biomarker (cytokine) effects after iv dosing (healthy mouse; iv bolus QD, 1 mg/kg and 3 mg/kg (either iv dose))
decreased: Bacteroidetes (phylum) in microbiome ([2]; week 4, not marked as significant)
trend of increasing change: Change in granulocyte number, pre-dose to day 28 [1, 6] | Change in lymphocyte and white blood cell numbers and percentage, pre-dose to day 28 [1, 6] | Change in monocyte number and percentage, pre-dose to day 28 [1, 6]
Significantly Increased: Brenneria (genus) in microbiome [2, 8] | Erysipelatoclostridium (genus) in microbiome [2, 8] | Escherichia (genus) in microbiome [2, 8] | Parabacteroides (genus) in microbiome [2, 8] | Peptoclostridium (genus) in microbiome [2, 8] | Shigella (genus) in microbiome [2, 8] | Sutterella (genus) in microbiome [2, 8]
noticeable body weight decrease: Body weight after treatment for 28 days ([1]; compared to vehicle-treated controls)
significantly increased: Serum GLP-1 levels at Day 56 (diet-induced (DIO) mice [3]; DA 92.4 mg/kg gavage BID, 1 h after dosing, vs vehicle) | Serum GLP-1 levels at Day 7 (diet-induced (DIO) mice [3]; DA 92.4 mg/kg gavage BID, 2 h after dosing, vs vehicle) | Serum CCK levels at Day 56 (diet-induced (DIO) mice [3]; [9]) | Serum GLP-2 levels at Day 56 (diet-induced (DIO) mice [3]; [9]) | Serum PYY levels at Day 56 (diet-induced (DIO) mice [3]; [9]) | Daily water intake at Day 28 (diet-induced (DIO) mice [3]; gavage BID (DA 92.4 mg/kg, CQL 50 mg/kg), vs vehicle)
significant decreases: GM-CSF in blood at day 28 [1, 5] | IFNγ in blood at day 28 [1, 5] | IL-5 in blood at day 28 [1, 5] | IL-10 in blood at day 28 [1, 5] | IL-12 in blood at day 28 [1, 5] | KC/CXCL1 in blood at day 28 [1, 5] | M-CSF in blood at day 28 [1, 5] | Deferribacteres (phylum) in fecal microbiome [2, 7] | Firmicutes (phylum) in fecal microbiome [2, 7] | Spirochetes (phylum) in fecal microbiome [2, 7]
considerably increased: Serum HbA1c level at Day 56 (diet-induced (DIO) mice [3]; [11])
